# “Also recorded” adds a separate entry of the source. Where a name gives a salt, the structure may show the parent alone.
# Legend:
# [1] = Calcium Scale Inhibitor Test (NACE test method TM-03-74), calcium carbonate scale; conditions: for Percent Inhibition at 24 Hrs. / Percent Inhibition at 48 Hrs. / Percent Inhibition at 72 Hrs.: 10 ppm based on active acid content; for threshold activity (in words): threshold agent, less than stoichiometric amounts
# Procedure: To show the utility of the above compounds as scale inhibitors, the following test was run.
# Calcium Scale Inhibitor Test
# The compounds were evaluated as scale inhibitors for calcium carbonate scale according to National Association of Corrosion Engineers (NACE) test method TM-03-74. Note the dramatic improvement of the phosphonic acids prepared from the bis(aminoethyl)piperazine and bis(aminopropyl)piperazine compounds of this invention when compared to aminoethylpiperazinetrimethylenephosphonic acid taught in the U.S. patent literature as a good scale inhibition compound.
# *ppm based on active acid content
# [2] = Titration with standard copper solution in the presence of chrome azurol-S indicator (sequestering/chelating); conditions: titrated with standard copper solution
# Source text: The compounds of this invention can also function as sequestering/chelating agents. For example, compounds were titrated with standard copper solution in the presence of chrome azurol-S indicator. The compound of Example 9 complexed about one mole of copper per mole of ligand. […] The compound of Example 3 was titrated and found to complex approximately three moles of copper per mole of ligand. The compound can function as either a threshold compound or a chelating agent.
structure (smiles),measurement,setting,value
O=P(O)(O)CN(CCN1CCN(CCN(CP(=O)(O)O)CP(=O)(O)O)CC1)CC(O)CS(=O)(=O)O (stereo not shown) [Example 6],Percent Inhibition at 24 Hrs.,[1],85%
same,Percent Inhibition at 48 Hrs.,[1],73%
same,Percent Inhibition at 72 Hrs.,[1],75%
"O=C(O)CN(CCN1CCN(CCN(CC(=O)O)CC(=O)O)CC1)CC(=O)O [Example 9, tetrasodium salt of bis(aminoethyl)piperazine-tetraacetic acid]",Percent Inhibition at 24 Hrs.,[1],55%
same,Percent Inhibition at 48 Hrs.,[1],51%
same,Percent Inhibition at 72 Hrs.,[1],50%
same,threshold activity (in words),[1],not a good threshold compound; also recorded: ineffective as a threshold compound
same,copper complexed per mole of ligand,[2],about one
O=P(O)(O)CNCCN1CCN(CCN(CP(=O)(O)O)CP(=O)(O)O)CC1 [Example 4],Percent Inhibition at 24 Hrs.,[1],97%
same,Percent Inhibition at 48 Hrs.,[1],87%
same,Percent Inhibition at 72 Hrs.,[1],79%
O=P(O)(O)CN(CCN1CCN(CCN(CP(=O)(O)O)CP(=O)(O)O)CC1)CP(=O)(O)O [Example 3],Percent Inhibition at 24 Hrs.,[1],99%
same,Percent Inhibition at 48 Hrs.,[1],91%
same,Percent Inhibition at 72 Hrs.,[1],89%
same,copper complexed per mole of ligand,[2],approximately three
O=P(O)(O)CNCCCN1CCN(CCCN(CP(=O)(O)O)CP(=O)(O)O)CC1 [Example 2],Percent Inhibition at 24 Hrs.,[1],99%
same,Percent Inhibition at 48 Hrs.,[1],93%
same,Percent Inhibition at 72 Hrs.,[1],91%
"O=P(O)(O)CN(CCCN1CCN(CCCN(CP(=O)(O)O)CP(=O)(O)O)CC1)CP(=O)(O)O [Example 1, completely phosphonomethylated bis(aminopropyl)piperazine]",Percent Inhibition at 24 Hrs.,[1],99%
same,Percent Inhibition at 48 Hrs.,[1],93%
same,Percent Inhibition at 72 Hrs.,[1],90%
O=P(O)(O)CN(CCCN1CCN(CCCN(CP(=O)(O)O)CP(=O)(O)O)CC1)CC(O)CS(=O)(=O)O (stereo not shown) [Example 7],Percent Inhibition at 24 Hrs.,[1],92%
same,Percent Inhibition at 48 Hrs.,[1],77%
same,Percent Inhibition at 72 Hrs.,[1],79%
CC(O)CN(CCN1CCN(CCN(CP(=O)(O)O)CP(=O)(O)O)CC1)CP(=O)(O)O (stereo not shown) [Example 8],Percent Inhibition at 24 Hrs.,[1],79%
same,Percent Inhibition at 48 Hrs.,[1],77%
same,Percent Inhibition at 72 Hrs.,[1],73%
O=C(O)CN(CCN1CCN(CCN(CP(=O)(O)O)CP(=O)(O)O)CC1)CP(=O)(O)O [Example 5],Percent Inhibition at 24 Hrs.,[1],96%
same,Percent Inhibition at 48 Hrs.,[1],89%
same,Percent Inhibition at 72 Hrs.,[1],83%
"O=P(O)(O)CN1CCN(CCN(CP(=O)(O)O)CP(=O)(O)O)CC1 [Example A, aminoethylpiperazine trimethylenephosphonic acid, reference compound]",Percent Inhibition at 24 Hrs.,[1],77%
same,Percent Inhibition at 48 Hrs.,[1],65%
same,Percent Inhibition at 72 Hrs.,[1],60%
same,threshold activity (in words),[1],not have very good threshold activity
